According to article doi:10.1101/041947v2 (biorxiv, 2016):

Test system: A549
Test: cells
Conditions: Homo sapiens, A549, read-out: IC50 nM

## CC[C@]1(O)C[C@@H]2CN(CCc3c([nH]c4ccccc34)[C@@](C(=O)OC)(c3cc4c(cc3OC)N(C)[C@H]3[C@@](O)(C(=O)OC)[C@H](OC(C)=O)[C@]5(CC)C=CCN6CC[C@]43[C@@H]65)C2)C1 [Vinblastine]
  IC50: 4.2 nM
